Laboratory results published in patent US9695155B2, “Herbicidal substituted pyrimidinyloxy benzene compounds” (E. I. DU PONT DE NEMOURS AND COMPANY, priority 2013, dated 2017).

Tests used:
[1] = test system: buckwheat, wild; test: Test F preemergence; format: in vivo, Polygonum convolvulus; settings: 21 days, scale 0 to 100
Procedure, shortened: (§1)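 Loam/sand mix; preemergence spray, non-phytotoxic solvent + surfactant; greenhouse 21 d; visual injury vs untreated, 0 (none)–100 (complete control).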

[2] = test system: mallow; test: Test F preemergence; format: in vivo, Malva sylvestris; settings: 21 days, scale 0 to 100
Procedure, shortened: as §1

[3] = test system: ragweed; test: Test E postemergence; format: in vivo, Ambrosia elatior
Excerpt: Seeds of plant species selected from corn (Zea mays), soybean (Glycine max), velvetleaf (Abutilon theophrasti), lambsquarters (Chenopodium album), wild poinsettia (Euphorbia heterophylla), palmer pigweed (Amaranthus palmeri), waterhemp (common waterhemp, Amaranthus rudis), surinam grass (Brachiaria decumbens), large (Lg) crabgrass (Digitaria sanguinalis), Brazilian crabgrass (Digitaria horizontalis), fall panicum (Panicum dichotomiflorum), giant foxtail (Setaria faberii), green foxtail (Setaria viridis), goosegrass (Eleusine indica), johnsongrass (Sorghum halepense), ragweed (common ragweed, Ambrosia elatior), barnyardgrass (Echinochloa crus-galli), sandbur (southern sandbur, Cenchrus echinatus), arrowleaf sida (Sida rhombifolia), Italian ryegrass (Lolium multiflorum), dayflower (Virginia (VA) dayflower, Commelina virginica), field bindweed (Convolvulus arvensis), morningglory (Ipomoea coccinea), nightshade (eastern black nightshade, Solanum ptycanthum), kochia (Kochia scoparia), yellow nutsedge (Cyperus esculentus), cocklebur (common cocklebur, Xanthium strumarium), smartweed (ladysthumb smartweed, and hairy beggarticks (Bidens pilosa), were planted into a silt loam soil and treated preemergence with test chemicals formulated in a non-phytotoxic solvent mixture which included a surfactant.
At the same time, plants from these crop and weed species and also horseweed (Canada horseweed, Conyza canadensis), waterhemp_RES1, (ALS & Triazine resistant common waterhemp, Amaranthus rudis), and waterhemp_RES2, (ALS & HPPD resistant common waterhemp, Amaranthus rudis) were planted in pots containing Redi-Earth® planting medium (Scotts Company, 14111 Scottslawn Road, Marysville, Ohio 43041) comprising spaghnum peat moss, vermiculite, wetting agent and starter nutrients were treated with postemergence applications of test chemicals formulated in the same manner. Plants ranged in height from 2 to 18 cm for postemergence treatments (1- to 4-leaf stage). Treated plants and controls were maintained in a greenhouse for 14 to 21 days, after which time all species were compared to controls and visually evaluated. Plant response ratings, summarized in Table E, are based on a scale of 0 to 100 where 0 is no effect and 100 is complete control. A dash (-) response means no test result.

[4] = test system: crabgrass, naked; test: Test F preemergence; format: in vivo, Digitaria nuda; settings: 21 days, scale 0 to 100
Procedure, shortened: as §1

[5] = test system: barnyardgrass; test: Test F preemergence; format: in vivo, Echinochloa crus-galli; settings: 21 days, scale 0 to 100
Excerpt: Seeds of plant species selected from bermudagrass (Cynodon dactylon), surinam grass (Brachiaria decumbens), large (Lg) crabgrass (Digitaria sanguinalis), crabgrass, naked (naked crabgrass, Digitaria nuda), foxtail, green (green foxtail, Setaria viridis), johnsongrass (Sorghum halepense), kochia (Kochia scoparia), morningglory (pitted morningglory, Ipomoea lacunosa), nutsedge, purple (purple nutsedge, Cyperus rotundus), ragweed (common ragweed, Ambrosia elatior), mustard, black (black mustard, Brassica nigra), guineagrass (Panicum maximum), dallisgrass (Paspalum dilatatum), barnyardgrass (Echinochloa crus-galli), sandbur (southern sandbur, Cenchrus echinatus), sowthistle (common sowthistle, Sonchus oleraceous), Italian ryegrass (Lolium multiflorum), signalgrass (broadleaf signalgrass, Brachiaria platyphylla), dayflower (Virginia (VA) dayflower, Commelina virginica), bluegrass (annual bluegrass, Poa annua), quackgrass (Elytrigia repens), mallow (common mallow, Malva sylvestris), buckwheat, wild (wild buckwheat, Polygonum convolvulus), leafy spurge (Euphorbia esula), chickweed (common chickweed, Stellaria media), wild poinsettia (Euphorbia heterophylla), and pigweed (Amaranthus retroflexus) were planted into a blend of loam soil and sand and treated preemergence with test chemicals formulated in a non-phytotoxic solvent mixture which included a surfactant.
Treated plants and controls were maintained in a greenhouse for 21 days, after which time all species were compared to controls and visually evaluated. Plant response ratings, summarized in Table F, are based on a scale of 0 to 100 where 0 is no effect and 100 is complete control. A dash (-) response means no test result.

[6] = test system: spring barley; test: Test D preemergence; format: in vivo, Hordeum vulgare; settings: Hordeum vulgare, pre-emergence, scale 0-100, read-out: Plant response rating, Barley, Spring
Excerpt: (§2) Seeds of plant species selected from bluegrass (annual bluegrass, Poa annua), blackgrass (Alopecurus myosuroides), canarygrass (littleseed canarygrass, Phalaris minor), chickweed (common chickweed, Stellaria media), galium (catchweed bedstraw, Galium aparine), bromegrass, downy (downy bromegrass, Bromus tectorum), field poppy (Papaver rhoeas), field violet (Viola arvensis), green foxtail (Setaria viridis), deadnettle (henbit deadnettle, Lamium amplexicaule), Italian ryegrass (Lolium multiflorum), kochia (Kochia scoparia), lambsquarters (Chenopodium album), oilseed rape (Brassica napus), pigweed (Amaranthus retroflexus), chamomile (scentless chamomile, Matricaria inodora), Russian thistle (Salsola kali), speedwell (bird's-eye speedwell, Veronica persica), spring barley (Hordeum vulgare), spring wheat (Triticum aestivum), wild buckwheat (Polygonum convolvulus), wild mustard (Sinapis arvensis), wild oat (Avena fatua), wild radish (Raphanus raphanistrum), windgrass (Apera spica-venti), winter barley (Hordeum vulgare), and winter wheat (Triticum aestivum) were planted into a silt loam soil and treated preemergence with test chemicals formulated in a non-phytotoxic solvent mixture which included a surfactant.
(§3) At the same time, these species were planted in pots containing Redi-Earth® planting medium (Scotts Company, 14111 Scottslawn Road, Marysville, Ohio 43041) comprising spaghnum peat moss, vermiculite, wetting agent and starter nutrients and treated with postemergence applications of the test chemicals formulated in the same manner. Plants ranged in height from 2 to 18 cm (1- to 4-leaf stage). Treated plants and controls were maintained in a controlled growth environment for 7 to 21 days after which time all species were compared to controls and visually evaluated. Plant response ratings, summarized in Table D, are based on a scale of 0 to 100 where 0 is no effect and 100 is complete control. A dash (-) response means no test result.

[7] = test system: wild buckwheat; test: Test D preemergence; format: in vivo, Polygonum convolvulus; settings: Fallopia convolvulus, pre-emergence, scale 0-100, read-out: Plant response rating, Buckwheat, Wild
Procedure, shortened: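 Visual ratings from 0 (no effect) to 100 (complete control) relative to untreated plants were taken 7–21 days after treatment. Chemicals in a surfactant-containing solvent mixture were applied preemergence to seeds in silt loam, or postemergence to plants 2–18 cm tall (1–4 leaves) grown in a peat-based potting medium.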

[8] = test system: Italian ryegrass; test: Test D postemergence; format: in vivo, Lolium multiflorum; settings: Lolium multiflorum, post-emergence, scale 0 to 100 (0 no effect, 100 complete control), read-out: Plant response rating, Ryegrass, Italian
Excerpt: as §2, §3

[9] = Postemergence, 31 g ai/ha, scale 0 to 100
[10] = Postemergence, 62 g ai/ha, scale 0 to 100
[11] = Postemergence, 125 g ai/ha, scale 0 to 100
[12] = postemergence, 16 g ai/ha, scale 0 to 100, 0 no effect, 100 complete control

`N#Cc1cccc(Oc2ncc(F)cn2)c1-n1cc(C(F)(F)F)cn1` [Compound 79, 3-[(5-fluoro-2-pyrimidinyl)oxy]-2-[4-(trifluoromethyl)-1H-pyrazol-1-yl]benzonitrile] was tested, and the “Plant response rating, Buckwheat, Wild” value ([1]; 16 g ai/ha) was 98, the “Plant response rating, Buckwheat, Wild” value ([1]; 31 g ai/ha) was 100 and the “Plant response rating, Buckwheat, Wild” value ([1]; 62 g ai/ha) was 100. For the same compound, the “Plant response rating, Buckwheat, Wild” value ([1]; 125 g ai/ha) was 100, the “Plant response rating, Buckwheat, Wild” value ([1]; 250 g ai/ha) was 100 and the “Plant response rating, Mallow” value ([2]; 16 g ai/ha) was 98. For the same compound, the “Plant response rating, Mallow” value ([2]; 31 g ai/ha) was 100, the “Plant response rating, Mallow” value ([2]; 62 g ai/ha) was 100 and the “Plant response rating, Mallow” value ([2]; 125 g ai/ha) was 100. The “Plant response rating, Mallow” value ([2]; 250 g ai/ha) was 100, the “Plant response rating, Ragweed” value [3, 9] was 40 and the “Plant response rating, Ragweed” value [3, 10] was 50. For the same compound, the “Plant response rating, Ragweed” value [3, 11] was 60, the “Plant response rating, Ragweed” value [3, 12] was 30 and the “Plant response rating, Crabgrass, Naked” value ([4]; 16 g ai/ha) was 100. The “Plant response rating, Crabgrass, Naked” value ([4]; 31 g ai/ha) was 100, the “Plant response rating, Crabgrass, Naked” value ([4]; 62 g ai/ha) was 100 and the “Plant response rating, Crabgrass, Naked” value ([4]; 125 g ai/ha) was 100. For the same compound, the “Plant response rating, Crabgrass, Naked” value ([4]; 250 g ai/ha) was 100, the “Plant response rating, Barnyardgrass” value ([5]; 16 g ai/ha) was 75 and the “Plant response rating, Barnyardgrass” value ([5]; 31 g ai/ha) was 100. The “Plant response rating, Barnyardgrass” value ([5]; 62 g ai/ha) was 100, the “Plant response rating, Barnyardgrass” value ([5]; 125 g ai/ha) was 100 and the “Plant response rating, Barnyardgrass” value ([5]; 250 g ai/ha) was 100.
With `N#Cc1cccc(Oc2ncc(Cl)cn2)c1-n1cc(Br)cn1` [Compound 52, 2-(4-bromo-1H-pyrazol-1-yl)-3-[(5-chloro-2-pyrimidinyl)oxy]benzonitrile] the plant injury at 31 g/ha ([6]; 31 g ai/ha) was 5%, the plant injury at 62 g/ha ([6]; 62 g ai/ha) was 10% and the plant injury at 125 g/ha ([6]; 125 g ai/ha) was 10%. For the same compound, the plant injury at 250 g/ha ([6]; 250 g ai/ha) was 50%, the “Plant response rating, Ragweed” value [3, 9] was 50 and the “Plant response rating, Ragweed” value [3, 10] was 55. For the same compound, the “Plant response rating, Ragweed” value [3, 11] was 60, the “Plant response rating, Ragweed” value [3, 12] was 40 and the pest or weed control at 31 g/ha ([7]; 31 g ai/ha) was 10%. For the same compound, the pest or weed control at 62 g/ha ([7]; 62 g ai/ha) was 50%, the pest or weed control at 125 g/ha ([7]; 125 g ai/ha) was 100% and the pest or weed control at 250 g/ha ([7]; 250 g ai/ha) was 100%. For the same compound, the pest or weed control at 31 g/ha ([8]; 31 g ai/ha) was 5%, the pest or weed control at 62 g/ha ([8]; 62 g ai/ha) was 5% and the pest or weed control at 125 g/ha ([8]; 125 g ai/ha) was 20%. For the same compound, the pest or weed control at 250 g/ha ([8]; 250 g ai/ha) was 35%.
